Key:
[1] = molecular target: T1, RagA–RagC GTPase heterodimer (Rag GTPases) (Homo sapiens, UniProt Q7L523+Q9HB90, Q7L523:T210A); test: half-site GTP hydrolysis after nucleotide preloading; type: biochemical; details: 1.2 molar equivalents prebound, labelled GTP added; pH 7.4, 2 mM MgCl2, 25 °C; stimulates hydrolysis on second subunit
T1 construct: gene RRAGA; RagA-RagC heterodimer coexpressed in E. coli BL21(DE3); nucleotide stripped with EDTA, gel filtration

[2] = molecular target: T2, RagA–RagC GTPase heterodimer (Rag GTPases) (Homo sapiens, UniProt Q7L523+Q9HB90, Q9HB90:S266A); test: as above; type: biochemical; details: 1.2 molar equivalents prebound, labelled GTP added; pH 7.4, 2 mM MgCl2, 25 °C; stimulates hydrolysis on second subunit
T2 construct: gene RRAGA; RagA-RagC heterodimer coexpressed in E. coli BL21(DE3); nucleotide stripped with EDTA, gel filtration
T2 sequence (Q7L523 whole entry): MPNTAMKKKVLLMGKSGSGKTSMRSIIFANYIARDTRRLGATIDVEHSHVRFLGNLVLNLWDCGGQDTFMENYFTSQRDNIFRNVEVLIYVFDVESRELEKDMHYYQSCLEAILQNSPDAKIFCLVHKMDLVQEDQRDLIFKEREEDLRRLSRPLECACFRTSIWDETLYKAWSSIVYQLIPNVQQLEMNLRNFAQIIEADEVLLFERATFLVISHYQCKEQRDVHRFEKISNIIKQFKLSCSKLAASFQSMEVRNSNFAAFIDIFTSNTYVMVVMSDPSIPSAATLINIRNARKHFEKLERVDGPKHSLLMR
T2 sequence (Q9HB90 whole entry S266A): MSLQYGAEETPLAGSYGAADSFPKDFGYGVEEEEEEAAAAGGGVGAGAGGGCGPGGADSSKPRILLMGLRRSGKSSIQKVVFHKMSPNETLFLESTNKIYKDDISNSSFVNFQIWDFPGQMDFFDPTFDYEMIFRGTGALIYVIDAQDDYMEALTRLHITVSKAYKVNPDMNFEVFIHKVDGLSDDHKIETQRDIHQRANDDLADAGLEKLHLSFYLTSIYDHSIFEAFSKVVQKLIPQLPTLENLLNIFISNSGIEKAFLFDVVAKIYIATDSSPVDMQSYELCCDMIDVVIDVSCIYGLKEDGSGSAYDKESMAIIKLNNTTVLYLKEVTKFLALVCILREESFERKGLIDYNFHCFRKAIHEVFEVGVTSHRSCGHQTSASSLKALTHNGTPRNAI

T1 sequence (Q7L523 whole entry T210A): as the sequence (Q7L523 whole entry) above, with T210A counted along it
T1 sequence (Q9HB90 whole entry): as the sequence (Q9HB90 whole entry S266A) above, with A266S counted along it

Structure (SMILES): Nc1nc2c(ncn2[C@@H]2O[C@H](COP(=O)(O)OP(=O)(O)NP(=O)(O)O)[C@@H](O)[C@H]2O)c(=O)[nH]1 [GppNHp]
- half-site GTP hydrolysis after nucleotide preloading [1]: prebound GTP or GppNHp stimulated hydrolysis of the later-bound GTP to a much higher level
- half-site GTP hydrolysis after nucleotide preloading [2]: prebound GTP or GppNHp stimulated hydrolysis of the later-bound GTP to a much higher level
